One data set concerns P. falciparum D6. As to the kind of experiment: Malaria SYBR Green Fluorescence Assay, D6 strain. The settings on record: for D6: SYBR Green Assay. Type of data set: cell-based, Plasmodium falciparum.
The test system of a further data set is P. falciparum W2. As to the kind of experiment: Malaria SYBR Green Fluorescence Assay, W2 strain. Type of data set: cell-based, Plasmodium falciparum. The settings on record: for W2: SYBR Green Assay.
For another data set, the system named is P. falciparum C235. As to the kind of experiment: Malaria SYBR Green Fluorescence Assay, C235 strain. It counts as cell-based, Plasmodium falciparum. The settings on record: for C235: SYBR Green Assay.
The target in data set [1] is hERG potassium ion channel (Homo sapiens, UniProt Q12809). As to the kind of experiment: hERG patch clamp assay (% inhibition at 10 μM). In general terms: hERG is a cardiac potassium channel; its block is linked to QT prolongation.
Chain of hERG potassium ion channel (Q12809 whole entry): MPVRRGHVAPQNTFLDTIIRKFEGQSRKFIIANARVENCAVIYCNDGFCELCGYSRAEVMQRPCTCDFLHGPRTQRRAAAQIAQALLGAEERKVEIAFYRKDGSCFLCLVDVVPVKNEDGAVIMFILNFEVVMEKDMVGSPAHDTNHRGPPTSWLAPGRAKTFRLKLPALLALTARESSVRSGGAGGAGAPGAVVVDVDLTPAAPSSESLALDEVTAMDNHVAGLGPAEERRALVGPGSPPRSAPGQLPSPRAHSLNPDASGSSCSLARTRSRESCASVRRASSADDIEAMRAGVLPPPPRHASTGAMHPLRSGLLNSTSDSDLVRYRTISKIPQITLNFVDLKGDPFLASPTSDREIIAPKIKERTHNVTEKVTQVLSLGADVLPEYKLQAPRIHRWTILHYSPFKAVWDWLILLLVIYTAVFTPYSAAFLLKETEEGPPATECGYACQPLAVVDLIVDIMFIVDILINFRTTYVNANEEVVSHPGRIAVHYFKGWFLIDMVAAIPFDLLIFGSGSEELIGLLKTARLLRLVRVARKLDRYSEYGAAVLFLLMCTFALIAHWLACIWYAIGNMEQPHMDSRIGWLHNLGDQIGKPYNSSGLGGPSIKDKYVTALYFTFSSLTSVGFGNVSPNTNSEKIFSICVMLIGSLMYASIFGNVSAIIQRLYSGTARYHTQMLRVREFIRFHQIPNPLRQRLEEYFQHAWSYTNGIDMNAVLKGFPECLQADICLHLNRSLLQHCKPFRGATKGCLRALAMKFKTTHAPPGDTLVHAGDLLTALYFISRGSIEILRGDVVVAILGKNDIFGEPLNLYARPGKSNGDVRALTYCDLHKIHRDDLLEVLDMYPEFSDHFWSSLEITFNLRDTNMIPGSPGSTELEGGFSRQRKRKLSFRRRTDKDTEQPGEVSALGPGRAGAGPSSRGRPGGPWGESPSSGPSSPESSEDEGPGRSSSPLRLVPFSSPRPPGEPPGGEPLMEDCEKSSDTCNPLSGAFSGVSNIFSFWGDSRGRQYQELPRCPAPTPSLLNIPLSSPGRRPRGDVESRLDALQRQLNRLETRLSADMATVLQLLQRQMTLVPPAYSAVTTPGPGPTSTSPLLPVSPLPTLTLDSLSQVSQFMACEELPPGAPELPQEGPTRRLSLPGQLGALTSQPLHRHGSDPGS
Where [2] appears, read: % inhibition at 10 μM, patch clamp.

From US9334246B2, “Substituted triazines for malaria treatment and chemoprophylaxis” (The United States of America, as represented by the …, priority 2013, dated 2016) come the findings set out here.

On to “3-(4-((3-(dimethylamino)propyl)amino)-6-(trichloromethyl)-1,3,5-triazin-2-yl)benzoic acid [Example 11]”, for which the D6 with P. falciparum D6 was 588 ng/mL. The W2 with P. falciparum W2 is on record as 475 ng/mL. In the data set with P. falciparum C235, this compound gave a C235 of 592 ng/mL. The hERG in data set [1] (hERG activity as % inhibition) came out at 15%.
In the same order, the values of “4-(4-(((1-ethylpiperidin-4-yl)methyl)amino)-6-(trichloromethyl)-1,3,5-triazin-2-yl)benzoic acid [Example 12]” are 5 ng/mL, 11 ng/mL, 4 ng/mL and 39%.
In the case of “4-((4-((pyridin-2-ylmethyl)amino)-6-(trichloromethyl)-1,3,5-triazin-2-yl)amino)phenol [Example 14]”, the D6 with P. falciparum D6 came to 37 ng/mL. Also, in the data set on P. falciparum W2, the W2 amounted to 24 ng/mL. Also, the C235 in the data set with P. falciparum C235 is 36 ng/mL. For the same compound, the hERG in data set [1] (setting [2]) is 11%.
In the case of `CN(C)C1CCN(c2nc(-c3ccc(Cl)c(Cl)c3)nc(C(Cl)(Cl)Cl)n2)C1` (stereo not shown) [Cmpd 20], the hERG in data set [1] (setting [2]) is listed as 50%.
The same measure, in the same setting: in the case of `CN1CCN(c2nc(-c3ccc(Cl)c(Cl)c3)nc(C(Cl)(Cl)Cl)n2)CC1` [Cmpd 22] it was 33%; in that of `Clc1ccc(-c2nc(N3CCNCC3)nc(C(Cl)(Cl)Cl)n2)cc1Cl` [Cmpd 25], 10%.
In turn, `CN1CCN(c2nc(-c3ccc(Cl)cc3)nc(C(Cl)(Cl)Cl)n2)CC1` [Cmpd 29] returned a D6 in the data set with P. falciparum D6 of 307 ng/mL. In the data set on P. falciparum W2, this compound showed a W2 of 173 ng/mL. Moreover, the C235 in the data set with P. falciparum C235 worked out at 351 ng/mL. The hERG in data set [1] (setting [2]) turned out to be 5%.
Consider `Clc1ccc(-c2nc(N3CCOCC3)nc(C(Cl)(Cl)Cl)n2)cc1` [Cmpd 31], for which the hERG in data set [1] (setting [2]) was determined as 12%.
`CC(C)(C)c1ccc(-c2nc(NCCCN3CCCC3)nc(C(Cl)(Cl)Cl)n2)cc1` [Cmpd 34]: the D6 with P. falciparum D6 is on record as 152 ng/mL. The compound further yielded a W2 with P. falciparum W2 of 141 ng/mL. For the same compound, in the data set on P. falciparum C235, the C235 was determined as 152 ng/mL. This compound registered a hERG in data set [1] (setting [2]) of 80.9%.
In turn, `ClC(Cl)(Cl)c1nc(NCCN2CCCC2)nc(-c2ccc(OCc3ccccc3)cc2)n1` [Cmpd 35] returned a D6 in the data set with P. falciparum D6 of 194 ng/mL. The compound further came in with a W2 in the data set with P. falciparum W2 of 125 ng/mL. This compound also registered a C235 in the data set with P. falciparum C235 of 186 ng/mL. In data set [1] (setting [2]), the hERG stood at 56%.
The corresponding values for `CS(=O)(=O)c1ccc(-c2nc(NCCN3CCCC3)nc(C(Cl)(Cl)Cl)n2)cc1` [Cmpd 39] are 85 ng/mL, 45 ng/mL, 92 ng/mL and 90%.
Consider `CSc1ccc(-c2nc(NCCC3CCCN3C)nc(C(Cl)(Cl)Cl)n2)cc1` (stereo not shown) [Cmpd 45], for which the D6 with P. falciparum D6 came to 43 ng/mL. Besides, the W2 in the data set with P. falciparum W2 was 91 ng/mL. This compound also returned a C235 in the data set on P. falciparum C235 of 74 ng/mL. Also, the hERG in data set [1] (setting [2]) amounted to 38%.
With `CSc1ccc(-c2nc(NCCN3CCCC3)nc(C(Cl)(Cl)Cl)n2)cc1` [Cmpd 47], the hERG in data set [1] (setting [2]) is reported as 95%.
`CCN(CC)CCNc1nc(Cc2ccc(OC)cc2)nc(C(Cl)(Cl)Cl)n1` [Cmpd 59] registered a D6 with P. falciparum D6 of 290 ng/mL. In the data set on P. falciparum W2, this compound returned a W2 of 153 ng/mL. Further, the C235 with P. falciparum C235 was 288 ng/mL. Moreover, in data set [1] (setting [2]), the hERG is 100%.
The corresponding values for `CN1CCCC1CCNc1nc(Nc2ccccc2N2CCOCC2)nc(C(Cl)(Cl)Cl)n1` (stereo not shown) [Cmpd 64] are 140 ng/mL, 75 ng/mL, 121 ng/mL and 100%.
In the data set on P. falciparum D6, `COc1ccccc1Nc1nc(N2CCN(C)CC2)nc(C(Cl)(Cl)Cl)n1` [Cmpd 65] yielded a D6 of 32 ng/mL. In addition, the W2 with P. falciparum W2 was 32 ng/mL. Also, the C235 in the data set on P. falciparum C235 came out at 31 ng/mL. For the same compound, in data set [1] (setting [2]), the hERG is 83%.
`CCN(CC)CCNc1nc(Cc2ccccc2OC)nc(C(Cl)(Cl)Cl)n1` [Cmpd 70] gave a D6 in the data set on P. falciparum D6 of 6 ng/mL. The same compound yielded a W2 in the data set with P. falciparum W2 of 6 ng/mL. The compound further registered a C235 with P. falciparum C235 of 6 ng/mL. This compound also registered a hERG in data set [1] (setting [2]) of 100%.
`CN1CCC(Nc2nc(-c3ccc(S(C)(=O)=O)cc3)nc(C(Cl)(Cl)Cl)n2)CC1` [Cmpd 77]: the D6 in the data set with P. falciparum D6 is listed as 92 ng/mL. The compound also registered a W2 with P. falciparum W2 of 53 ng/mL. For the same compound, the C235 with P. falciparum C235 is 131 ng/mL. This compound came in with a hERG in data set [1] (setting [2]) of 72%.
In the data set on P. falciparum D6, `CCN1CCCC(Nc2nc(-c3ccc(C)cc3)nc(C(Cl)(Cl)Cl)n2)C1` (stereo not shown) [Cmpd 80] yielded a D6 of 135 ng/mL. Further, in the data set on P. falciparum W2, the W2 is listed as 90 ng/mL. In the data set on P. falciparum C235, this compound yielded a C235 of 129 ng/mL. This compound also gave a hERG in data set [1] (setting [2]) of 97%.
The corresponding values for `COc1ccc(Cc2nc(NCCN3CCCC3C)nc(C(Cl)(Cl)Cl)n2)cc1` (stereo not shown) [Cmpd 89] are 805 ng/mL, 718 ng/mL, 991 ng/mL and 50%.
In the data set with P. falciparum D6, `CN1CCCC1CCNc1nc(-c2ccc(Cl)cc2)nc(C(Cl)(Cl)Cl)n1` (stereo not shown) [Cmpd 91] yielded a D6 of 31 ng/mL. In the data set with P. falciparum W2, the W2 came to 19 ng/mL. Further, in the data set on P. falciparum C235, the C235 is given as 32 ng/mL. The same compound displayed a hERG in data set [1] (setting [2]) of 79%.
`Cc1ccccc1-c1nc(NCCN2CCCC2)nc(C(Cl)(Cl)Cl)n1` [Cmpd 121] came in with a D6 in the data set on P. falciparum D6 of 70 ng/mL. Besides, in the data set with P. falciparum W2, the W2 was 42 ng/mL. The compound also returned a C235 with P. falciparum C235 of 84 ng/mL. Moreover, the hERG in data set [1] (setting [2]) stood at 103%.
Regarding `COc1ccc(-c2nc(NCc3ccncc3)nc(C(Cl)(Cl)Cl)n2)cc1` [Cmpd 130], the D6 in the data set with P. falciparum D6 came to 12 ng/mL. This compound also displayed a W2 in the data set on P. falciparum W2 of 5 ng/mL. In the data set on P. falciparum C235, this compound displayed a C235 of 24 ng/mL. The compound also registered a hERG in data set [1] (setting [2]) of 20%.
In the same order, the values of `Clc1ccc(-c2nc(NCCc3ccccn3)nc(C(Cl)(Cl)Cl)n2)cc1` [Cmpd 140] are 106 ng/mL, 32 ng/mL, 136 ng/mL and 11%.
In the same order, the values of `CC(C)(C)c1ccc(-c2nc(N3CCNCC3)nc(C(Cl)(Cl)Cl)n2)cc1` [Cmpd 161] are 88 ng/mL, 32 ng/mL, 98 ng/mL and 15%.
For `ClC(Cl)(Cl)c1ccc(-c2nc(NCCc3ccccn3)nc(C(Cl)(Cl)Cl)n2)cc1` [Cmpd 163], in the data set on P. falciparum D6, the D6 came out at 50 ng/mL. Further, the W2 in the data set with P. falciparum W2 was 20 ng/mL. Besides, the C235 in the data set with P. falciparum C235 came to 61 ng/mL. The same compound showed a hERG in data set [1] (setting [2]) of 5%.
Compound `COc1cccc(-c2nc(NCCN3CCCC3)nc(C(Cl)(Cl)Cl)n2)c1` [Cmpd 192] came in with a D6 in the data set on P. falciparum D6 of 18 ng/mL. In the data set on P. falciparum W2, this compound gave a W2 of 13 ng/mL. Further, the C235 in the data set on P. falciparum C235 worked out at 12 ng/mL. The compound further came in with a hERG in data set [1] (setting [2]) of 100%.
`ClC(Cl)(Cl)c1nc(NCCN2CCCC2)nc(-c2ccc(-c3ccccc3)cc2)n1` [Cmpd 196] displayed a D6 in the data set with P. falciparum D6 of 31 ng/mL. Also, in the data set on P. falciparum W2, the W2 turned out to be 25 ng/mL. For the same compound, the C235 with P. falciparum C235 turned out to be 30 ng/mL. The hERG in data set [1] (setting [2]) came out at 53%.
For the compound `Clc1cc(Cl)cc(-c2nc(NCCN3CCCC3)nc(C(Cl)(Cl)Cl)n2)c1` [Cmpd 202], the D6 with P. falciparum D6 came out at 7 ng/mL. The W2 in the data set on P. falciparum W2 turned out to be 10 ng/mL. In addition, the C235 in the data set on P. falciparum C235 is given as 7 ng/mL. The hERG in data set [1] (setting [2]) worked out at 51%.
As to `CN1CCCN(c2nc(-c3cc(Cl)cc(Cl)c3)nc(C(Cl)(Cl)Cl)n2)CC1` [Cmpd 205], the D6 in the data set on P. falciparum D6 worked out at 23 ng/mL. The W2 in the data set on P. falciparum W2 is 7 ng/mL. The same compound showed a C235 with P. falciparum C235 of 26 ng/mL. In data set [1] (setting [2]), this compound returned a hERG of 20%.
The corresponding values for `CN1CCC(Nc2nc(-c3cccc(C(F)(F)F)c3)nc(C(Cl)(Cl)Cl)n2)CC1` [Cmpd 212] are 45 ng/mL, 16 ng/mL, 25 ng/mL and 80%.
The corresponding values for `COc1ccccc1-c1nc(NCC(C)(C)N)nc(C(Cl)(Cl)Cl)n1` [Cmpd 217] are 43 ng/mL, 20 ng/mL, 20 ng/mL and 62%.
Regarding `CCN(CC)CCNc1nc(-c2ccc3ccccc3c2)nc(C(Cl)(Cl)Cl)n1` [Cmpd 220], in the data set on P. falciparum D6, the D6 amounted to 40 ng/mL. In addition, the W2 in the data set with P. falciparum W2 was determined as 8 ng/mL. For the same compound, the C235 with P. falciparum C235 amounted to 12 ng/mL. Further, in data set [1] (setting [2]), the hERG was 66%.
For `CN1CCC(Nc2nc(-c3ccccc3)nc(C(Cl)(Cl)Cl)n2)CC1` [Cmpd 237], in the data set with P. falciparum D6, the D6 is recorded as 47 ng/mL. In the data set with P. falciparum W2, this compound had a W2 of 32 ng/mL. In the data set on P. falciparum C235, this compound registered a C235 of 31 ng/mL. In addition, the hERG in data set [1] (setting [2]) stood at 107%.
In the data set with P. falciparum D6, `CN1CCN(c2nc(-c3ccc(-c4ccccc4)cc3)nc(C(Cl)(Cl)Cl)n2)CC1` [Cmpd 298] registered a D6 of 62 ng/mL. In the data set on P. falciparum W2, this compound yielded a W2 of 33 ng/mL. This compound also showed a C235 in the data set with P. falciparum C235 of 87 ng/mL. The compound further showed a hERG in data set [1] (setting [2]) of 10%.
The corresponding values for `CCN1CCC(CNc2nc(-c3ccc(-c4ccccc4)cc3)nc(C(Cl)(Cl)Cl)n2)CC1` [Cmpd 306] are 54 ng/mL, 30 ng/mL, 87 ng/mL and 38%.
The corresponding values for `NC1(CNc2nc(-c3cccc(C(F)(F)F)c3)nc(C(Cl)(Cl)Cl)n2)CCOCC1` [Cmpd 315] are 3 ng/mL, 1 ng/mL, 8 ng/mL and 36%.
On to “NC1CCN(CC1)C1═NC(═NC(═N1)C(Cl)(Cl)Cl)C1═CC(Cl)═CC(Cl)═C1 [Compound 631]”, for which the “D6 (SYBR Green Assay IC50)” value with P. falciparum D6 is 0.291 µg/mL. For the same compound, the “W2 (SYBR Green Assay IC50)” value with P. falciparum W2 was 0.153 µg/mL. The “C235 (SYBR Green Assay IC50)” value with P. falciparum C235 came to 0.219 µg/mL.
In the same order, the values of “NC1CCN(CC1)C1═NC(═NC(═N1)C(Cl)(Cl)Cl)C1═CC═C(Cl)C(Cl)═C1 [Compound 622]” are 0.074 µg/mL, 0.036 µg/mL and 0.059 µg/mL.
